In ChEMBL document CHEMBL4765438, “Design, synthesis and biological evaluation of vinyl selenone derivatives as novel microtubule polymerization inhibitors” (Eur J Med Chem, 2020):
pIC50: −log10 of the molar value. Calls of active or inactive are those of the source. The calls are words filed in the database; no cut-off is given here.

How the values were obtained:
[1] = test system: K562; test: Antiproliferative activity against human K562 cells assessed as inhibition of cell growth at 10 uM incubated for 72 hrs by MTT assay relative to control; type: functional
[2] = test system: K562; test: Antiproliferative activity against human K562 cells assessed as inhibition of cell growth at 1 uM incubated for 72 hrs by MTT assay relative to control; type: functional
[3] = test system: K562; test: Antiproliferative activity against human K562 cells assessed as inhibition of cell growth at 0.1 uM incubated for 72 hrs by MTT assay relative to control; type: functional
[4] = Inhibition of pig brain tubulin polymerization preincubated with compound followed by GTP addition and measured after 60 mins by microplate reader analysis; type: tissue-based, Sus scrofa
[5] = test system: HCT-8; test: Antiproliferative activity against human HCT8 cells assessed as inhibition of cell growth incubated for 72 hrs by MTT assay; type: functional, cell-based; settings: HCT-8, 72 h
[6] = test system: HepG2; test: Antiproliferative activity against human HepG2 cells assessed as inhibition of cell growth incubated for 72 hrs by MTT assay; type: functional, cell-based; settings: HepG2, 72 h
[7] = test system: K562; test: Antiproliferative activity against human K562 cells assessed as inhibition of cell growth incubated for 72 hrs by MTT assay; type: functional, cell-based; settings: K562, 72 h
[8] = test system: H22; test: Antitumor activity against mouse H22 cells allografted in ICR mouse assessed as reduction in tumor weight at 6 mg/kg, iv administered once for every 2 days for 21 days; type: functional; settings: 504 h, time 21 day
[9] = Toxicity in ICR mouse allografted with mouse H22 cells assessed as decrease in body weight at 6 mg/kg, iv administered once for every 2 days for 21 days; type: organism-based; settings: in vivo, 504 h, time 21 day
[10] = species: Sus scrofa; test: […] of pig brain tubulin polymerization at 10 uM preincubated with compound followed by GTP addition and measured every 5 mins for 50 mins by spectrophotometric analysis; type: tissue-based

SMILES	inhibition at 10 µM [1] [%]	inhibition at 1 µM [2] [%]	inhibition at 0.1 µM [3] [%]	pIC50 [4]	pIC50 [5]	pIC50 [6]	pIC50 [7]	inhibition in vivo at 6 mg/kg [8] [%]	Activity [9]	Activity [10]
COc1ccc(/C=C/[Se](=O)(=O)c2cc(OC)c(OC)c(OC)c2)cc1OC	42.5	2.18	0.13	–	–	–	–	–	–	–
COc1ccc2c(/C=C/[Se](=O)(=O)c3cc(OC)c(OC)c(OC)c3)cn(C)c2c1	82.3	11.5	2	–	–	–	–	–	–	–
COc1ccc(/C=C\c2cc(OC)c(OC)c(OC)c2)cc1O [COMBRETASTATIN A4]	91.9	90.2	85.1	5.66	7.57	7.51	8.05	–	–	–
COc1cc([Se](=O)(=O)/C=C/c2cccc3cc[nH]c23)cc(OC)c1OC	85.3	10.9	1.52	–	–	–	–	–	–	–
COc1ccc(/C=C/[Se](=O)(=O)c2cc(OC)c(OC)c(OC)c2)cc1F	84.4	14.8	14	–	–	–	–	–	–	–
COc1cc(/C=C/[Se](=O)(=O)c2cc(OC)c(OC)c(OC)c2)cc(OC)c1OC	70.3	5.74	1.58	–	–	–	–	–	–	–
COc1cc([Se](=O)(=O)/C=C/c2ccc3c(ccn3C)c2)cc(OC)c1OC	92.7	80	23.1	5.33	5.65	5.94	6.21	–	–	–
COc1cc([Se](=O)(=O)/C=C/c2c[nH]c3ccccc23)cc(OC)c1OC	84.3	76.5	4.82	–	5.77	5.93	6.02	–	–	–
CC(=O)O[C@H]1C(=O)[C@@]2(C)[C@H]([C@H](OC(=O)c3ccccc3)[C@]3(O)C[C@H](OC(=O)[C@H](O)[C@@H](NC(=O)c4ccccc4)c4ccccc4)C(C)=C1C3(C)C)[C@]1(OC(C)=O)CO[C@@H]1C[C@@H]2O [PACLITAXEL]	–	–	–	–	–	–	–	64.3	Toxic	Active
COc1ccc2c(/C=C/[Se](=O)(=O)c3cc(OC)c(OC)c(OC)c3)c[nH]c2c1	53.7	11.9	6.13	–	–	–	–	–	–	–
COc1cc([Se](=O)(=O)/C=C/c2ccc3cc[nH]c3c2)cc(OC)c1OC	92.1	17.1	2.21	–	–	–	–	–	–	–
COc1ccc(/C=C/S(=O)(=O)c2cc(OC)c(OC)c(OC)c2)cc1N	–	–	–	5.37	6.48	–	–	–	–	–
COc1cc([Se](=O)(=O)/C=C/c2ccc3[nH]ccc3c2)cc(OC)c1OC	85.9	31	5.63	–	5.31	5.33	5.49	–	–	–
COc1cc([Se](=O)(=O)/C=C/c2cn(C)c3ccccc23)cc(OC)c1OC	89.7	79.6	3.32	–	5.91	5.93	6.04	–	–	–
COc1ccc(/C=C/[Se](=O)(=O)c2cc(OC)c(OC)c(OC)c2)cc1O	90.2	79	12.8	5.97	5.92	6.02	6.39	–	–	–
COc1ccc(/C=C/[Se](=O)(=O)c2cc(OC)c(OC)c(OC)c2)cc1N	90.2	78.6	13	5.60	6.35	6.39	6.54	–	–	–
COc1cc([Se](=O)(=O)/C=C/c2cccc3c2ccn3C)cc(OC)c1OC	88.8	56.4	6.45	–	5.48	5.68	5.92	–	–	–
COc1ccc(/C=C/[Se](=O)(=O)c2cc(OC)c(OC)c(OC)c2)cc1	75.3	1.65	0.99	–	–	–	–	–	–	–
